Laboratory results as given in patent publication US5849777A, “Cell differentiation induction with mevalonate and mevalonolactone derivatives” (University of New Mexico, priority 1995, dated 1998).

Tests used:
[1] = test system: Human peripheral blood leukocytes; experiment: IgG production by human peripheral blood leukocytes (HPBL) in vitro; format: cell-based
Experimental: Human peripheral blood leukocytes were cultured in a standard tissue culture medium. Aliquots of these cultured cells (1,000,000 cells/ml medium) were cultured for 6 hours, and the specified amount of Formula II compound was added; the cells were then cultured for an additional 90 hours. Sheep red blood cells (SRBC) conditioned with class-specific (IgG) goat anti-human antiserum (1:400) for 2 hours; then guinea pig complement (2%) for 2 hours were conjugated to Protein A as described in detail in Radioimaging and Radioimmunotherapy, Eds. S. W. Burchiel and B. A. Rhodes, Elsevier Science Publishing; New York, 1983, pp. 125-127, incorporated herein by reference.
1. Concentration inhibiting nonspecific IgG production below normal production.

[2] = target: T1, rat liver HMG-COA reductase (Rattus norvegicus, UniProt P51639); experiment: inhibition of rat liver HMG-CoA reductase activity; format: biochemical; details: read-out: IC50 (concentration for 50% inhibition of rat liver HMG-COA reductase activity); Table I
T1 construct: rat liver HMG-COA reductase activity; from tissue; host or cells: rat liver
T1 sequence (P51639 1-887): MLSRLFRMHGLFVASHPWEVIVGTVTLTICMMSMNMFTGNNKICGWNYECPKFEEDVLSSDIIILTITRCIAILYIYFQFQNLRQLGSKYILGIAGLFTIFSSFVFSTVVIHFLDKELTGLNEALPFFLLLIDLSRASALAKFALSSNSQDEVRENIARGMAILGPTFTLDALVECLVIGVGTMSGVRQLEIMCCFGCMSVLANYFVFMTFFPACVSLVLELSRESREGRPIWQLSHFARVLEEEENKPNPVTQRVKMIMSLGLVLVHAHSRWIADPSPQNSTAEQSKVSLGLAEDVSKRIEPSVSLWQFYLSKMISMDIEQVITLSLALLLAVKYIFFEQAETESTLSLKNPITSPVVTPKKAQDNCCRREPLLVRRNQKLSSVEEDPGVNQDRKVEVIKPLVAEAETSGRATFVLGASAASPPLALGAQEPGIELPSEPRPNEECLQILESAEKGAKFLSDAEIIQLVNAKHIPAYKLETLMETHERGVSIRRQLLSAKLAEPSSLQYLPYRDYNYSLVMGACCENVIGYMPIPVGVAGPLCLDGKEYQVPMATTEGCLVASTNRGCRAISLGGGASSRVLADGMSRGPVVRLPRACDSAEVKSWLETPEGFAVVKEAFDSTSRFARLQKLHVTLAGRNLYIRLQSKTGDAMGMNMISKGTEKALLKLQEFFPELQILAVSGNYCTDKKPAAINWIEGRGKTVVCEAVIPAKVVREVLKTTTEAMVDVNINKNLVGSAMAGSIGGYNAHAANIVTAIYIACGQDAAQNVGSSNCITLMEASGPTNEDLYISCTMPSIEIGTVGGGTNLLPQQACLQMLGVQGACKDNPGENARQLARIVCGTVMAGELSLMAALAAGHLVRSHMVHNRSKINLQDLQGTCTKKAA
Source text: While a number of the compounds of the Formula I are known HMG-CoA reductase inhibitors, there is no apparent correlation between HMG-CoA reductase inhibitory activity and promotion of differentiation activity according to the invention. […] Accordingly, useful guidelines for selecting compounds having optimal differentiation-promoting activity according to the invention broadly comprise selecting compounds of the Formula I having the specified stereochemical configuration and an in vitro immunological activity as set forth in the in vitro assay of Example II, of at least about 3-fold.

CG (canine glioma) cells = experiment: tumor-specific antibody production in vivo (anti-CG IgG titer); design: species or system dog; details: treatment 2+ months, tumor regressed
Source text: Titer of CG-specific antibody was compared to control [no administration of compound IIa' and no implantation of CG (canine glioma) cells]. […] This increase in titer continued with time until tumor regression was noted by independent measurement (NMR evaluation, below).
The results are particularly striking as the experimental tumor (brain glioma) is generally considered to enjoy a privileged position beyond the blood/brain barrier, substantially beyond the reach of the humoral immune system. Experimental protocols are described in detail below (FIGS. 7-9, Example VII).

CG tumor = experiment: chromium-release cell-mediated lympholysis (CML) vs CG tumor; format: in vivo, dog
Source text: Cellular immune response reflected the results reported in III, 1 above. […] This also is in the absence of CG antigen exposure. […] Thus both cellular and humoral immunity appear to be modulatable in the absence of antigen by the compounds of the instant invention.

canine glioma cells = experiment: in vivo tumor inhibition: nude rat model; design: species or system Nude Rats (canine glioma cells)
Experimental: Fifty four Nude Rats (Harlan) were injected in the right flank with 5×10^6 canine glioma cells. Animals at the time of injection were between 52 and 63 days old and weighed approximately 200 g. The rats were divided into 7 groups, each group having a total number of 7 rats except for the control group, which totalled 12 animals. Compound IIc' was administered to the experimental animals at one of the following dose for each experimental group: 100 μg/kg, 10 μg/kg, 1 μg/kg, 0.1 μg/kg, 0.01 μg/kg and 0.001 μg/kg (phosphate buffer saline, M, W, F, I.P.). The control animals were injected with PBS (phosphate buffered saline) only. The volume of each injection was 100 μl. The injections of drug were simultaneously begun with injection of tumor cells. The animals were injected with the appropriate dosage of drug (1 ng/kg to […]) by I.P. injection and tumor length, width and depth were measured using caliphers each Monday, Wednesday and Friday (M, W, F) morning for approximately 9 weeks. Each point on the graphs represents the total of all rats for each group. […] The data were normalized for the greater number of control animals by multiplying the total tumor volume for the control animals by 7/12.

Canine glioma = experiment: in vivo tumor inhibition: canine model; design: species or system dog
Experimental: Canine glioma was implanted surgically into the brains of four outbred dogs (2×10^6 cells). This procedure normally causes death by tumor growth in 14-28 days.
[…] F) by I.P. injection in phosphate buffered saline.
Tumor progress was assessed at weekly intervals by NMR, employing GdDPTA as imaging agent. This method illuminates vascularization at the surface of the tumor, and provides images which correlate well with neuropathological observations.

With CC(C)c1nc(-c2ccccc2)n(-c2ccc(F)cc2)c1/C=C/[C@H](O)C[C@@H](O)CC(=O)O [Compound IIc'] as the compound, how does the “optimal dose in vitro (immune stimulation)” value ([1]; HPBL assay) read?
Its value is 100 pM.

What about the “Inhibitory Concentration (concentration inhibiting nonspecific IgG production below normal production)” value ([1]; HPBL, additional 90 h culture) of the same compound?
Its value is “none found”.

What about the “immune stimulant (in words)” value ([1]; see Examples above) of the same compound?
Its value is “potent immune stimulant”.

And the IC50 [2]?
Its IC50 is 22 nM.

And the “IC-50% TITER (ANTI-CG)” value (CG (canine glioma) cells)?
The value was “BASELINE VALUES”.

What about the “slope "M" (LINEAR REGRESSION OF TOXICITY), Y = "M"X + B” value (“slope "M"” below) (CG tumor; December 14, 1987) of the same compound?
The value was 0.05.

And the “slope "M"” value (CG tumor; February 9, 1988)?
The value was 0.35.

What about the “slope "M"” value (CG tumor; February 17, 1988) of the same compound?
The value was 0.75.

What about the “slope "M"” value (CG tumor; March 31, 1988) of the same compound?
Its value is 0.05.

What about the “optimal dose in vivo, equivalent concentration with uniform distribution” value (canine glioma cells; 100 ng/kg) of the same compound?
The value was 250 pM.

And the “most effective dosage for inhibition of canine glioma cells” value (canine glioma cells; I.P., M, W, F, approx. 9 weeks (FIG. 3))?
Its value is 100 ng/kg.

And the cytostatic activity (canine glioma cells; higher doses, 10 and 100 μg/kg I.P.)?
Its cytostatic activity is “Little or no cytostatic activity”.

And the cytostatic activity (canine glioma cells; lowest dose, 1 ng/kg I.P.)?
Its cytostatic activity is “Little or no cytostatic activity”.

With CC(C)c1nc(-c2ccccc2)n(-c2ccc(F)cc2)c1/C=C/[C@H](O)C[C@H](O)CC(=O)O [TF-002] as the compound, how does the “tumor status, later studies” value (Canine glioma; 10 μg/kg I.P. (data not shown)) read?
Its value is “free of tumor”.

And the “small tumor appeared on Day” value (Canine glioma; pre-treated, 10 μg/kg I.P. M, W, F after implantation (FIG. 8))?
The value was 12 days.

For CC(C)c1c(/C=C/C(O)CC(O)CC(=O)O)n(-c2ccc(F)cc2)c2ccccc12 (stereo not shown) [TF-004], which “tumor visible at Day” value (Canine glioma; treatment begun on Day 11 (FIG. 9)) is on record?
The value was 10 days.
